Paper PMC10465233, “Lys-urea-Aad, Lys-urea-Cmc and Lys-urea-Cms as potential pharmacophores for the design of PSMA-targeted radioligands to reduce off-target uptake in kidneys and salivary glands” (Theranostics, 2023)
Where “and” joins values, the source holds several entries; their conditions need not be identical. Equal values may be shown once.

Legend:
LNCaP tumor-bearing mice [1] = assay: PET/CT imaging in LNCaP tumor-bearing mice; format: in vivo, mouse; conditions: 1 h post-injection
Experimental: Imaging, biodistribution and radioligand therapy experiments were performed following previously published procedures using male NOD-scid IL2Rg^null (NSG) or NOD.Cg-Rag1^tm1MomIl2rg^tm1Wjl/SzJ (NRG) mice [10]-[12],[14]-[15]. The experiments were conducted according to the guidelines established by the Canadian Council on Animal Care and approved by Animal Ethics Committee of the University of British Columbia. The mice were briefly sedated by inhalation of 2% isoflurane in oxygen, and implanted subcutaneously with 1×10^7 LNCaP cells behind the left shoulder. The mice were imaged or used in biodistribution studies when the tumor grew to 5-8 mm in diameter over a period of 4-5 weeks.
PET/CT imaging experiments were conducted using a Siemens (Knoxville, TN, USA) Inveon micro PET/CT scanner. Each tumor-bearing mouse was injected with ~6-8 MBq of ^68Ga-labeled tracer through a lateral caudal tail vein. After 50 min post-injection, a 10-min CT scan was conducted first for localization and attenuation correction after segmentation for reconstructing the PET images, followed by a 10-min static PET imaging acquisition.

LNCaP tumor-bearing mice [2] = assay: Ex vivo biodistribution in LNCaP tumor-bearing mice; set-up: species or system mouse; conditions: 1 h post-injection
Method in brief: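 Male NSG or NRG mice bearing subcutaneous LNCaP tumours (5-8 mm) were injected with 2-4 MBq radioligand, with 0.5 mg nonradioactive DCFPyL co-injected for blocking. At set time points, blood and organs were collected, weighed and gamma-counted.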

PSMA = biological target: T1, PSMA (Homo sapiens, UniProt Q04609); assay: In vitro competition binding assay, LNCaP cells, [^18F]DCFPyL as radioligand
T1 construct: host or cells: LNCaP prostate cancer cells
Experimental: The LNCaP cells obtained from ATCC (via Cedarlane, Burlington, Canada) were cultured in RPMI 1640 medium supplemented with 10% FBS, penicillin (100 U/mL) and streptomycin (100 μg/mL) at 37 °C in a Panasonic Healthcare (Tokyo, Japan) MCO-19AIC humidified incubator containing 5% CO2. The cells were confirmed pathogen free by the IMPACT Rodent Pathogen Test (IDEXX BioAnalytics). Cells grown to 80-90% confluence were then washed with sterile PBS and collected after trypsinization. The cell concentration was counted in triplicate using a hemocytometer and a manual laboratory counter.
In vitro competition binding assays were conducted as previously reported using LNCaP prostate cancer cells and [^18F]DCFPyL as the radioligand [10]-[12],[14]. Briefly, LNCaP cells (400,000/well) were plated onto a 24-well poly-D-lysine coated plate for 48 h. Growth media was removed and replaced with HEPES buffered saline (50 mM HEPES, pH 7.5, 0.9% sodium chloride) and the cells were incubated for 1 h at 37 °C. [^18F]DCFPyL (0.1 nM) was added to each well (in triplicate) containing various concentrations (0.5 mM - 0.05 nM) of tested ligands. Non-specific binding was determined in the presence of 10 µM non-radiolabeled DCFPyL. The assay mixtures were further incubated for 1 h at 37 °C with gentle agitation. Then, the buffer and hot ligand were removed, and cells were washed twice with cold HEPES buffered saline. To harvest the cells, 400 µL of 0.25% trypsin solution was added to each well. Radioactivity was measured on an automatic gamma counter. Nonlinear regression analyses and Ki calculations were performed using the GraphPad Prism 7 software.

22Rv1 tumor model = test system: 22Rv1 tumor model; set-up: method as in PMID 34453203; conditions: 1 h post-injection, 22Rv1, BALB/c nude; cited from earlier work
[3] = blocked, co-injected with DCFPyL (0.5 mg)

T1 sequence (Q04609 whole entry): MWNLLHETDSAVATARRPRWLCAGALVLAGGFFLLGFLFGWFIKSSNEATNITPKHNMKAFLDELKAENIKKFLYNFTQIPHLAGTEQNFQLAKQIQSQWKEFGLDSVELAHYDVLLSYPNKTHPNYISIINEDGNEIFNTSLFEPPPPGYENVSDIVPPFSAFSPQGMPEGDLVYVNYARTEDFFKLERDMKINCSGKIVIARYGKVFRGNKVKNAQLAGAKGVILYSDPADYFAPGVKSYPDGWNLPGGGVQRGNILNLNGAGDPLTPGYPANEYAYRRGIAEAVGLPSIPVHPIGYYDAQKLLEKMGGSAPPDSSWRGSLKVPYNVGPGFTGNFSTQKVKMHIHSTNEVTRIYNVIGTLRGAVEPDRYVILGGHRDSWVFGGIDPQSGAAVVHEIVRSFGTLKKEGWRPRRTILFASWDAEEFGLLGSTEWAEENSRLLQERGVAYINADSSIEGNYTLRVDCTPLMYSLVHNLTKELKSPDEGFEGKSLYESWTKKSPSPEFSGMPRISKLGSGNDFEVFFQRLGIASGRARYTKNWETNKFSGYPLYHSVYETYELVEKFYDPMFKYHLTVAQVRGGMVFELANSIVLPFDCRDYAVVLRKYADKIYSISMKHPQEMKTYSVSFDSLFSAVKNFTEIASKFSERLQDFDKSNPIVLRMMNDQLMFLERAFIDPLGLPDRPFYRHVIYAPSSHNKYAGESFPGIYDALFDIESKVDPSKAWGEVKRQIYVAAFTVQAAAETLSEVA

O=C([O-])CN1CCN(CC(=O)[O-])CCN(CC(=O)NCC2CCC(C(=O)NC(Cc3c4ccccc4cc4ccccc34)C(=O)NCCCCC(NC(=O)NC(COCC(=O)O)C(=O)O)C(=O)O)CC2)CCN(CC(=O)[O-])CC1.[68Ga+3] (centres unmarked) [[^68Ga]Ga-HTK03187]
Kidney uptake in PET images (LNCaP tumor-bearing mice [1]): relatively lower | Adrenal glands uptake (LNCaP tumor-bearing mice [2]): 0.26 ± 0.06 %ID/g | Blood uptake (LNCaP tumor-bearing mice [2]): 0.67 ± 0.10 %ID/g | Blood:Salivary gland uptake ratio (LNCaP tumor-bearing mice [2]): 4.27 ± 0.74 | Bone uptake (LNCaP tumor-bearing mice [2]): 0.13 ± 0.03 %ID/g | Brain uptake (LNCaP tumor-bearing mice [2]): 0.02 ± 0.00 %ID/g | Fat uptake (LNCaP tumor-bearing mice [2]): 0.07 ± 0.02 %ID/g | Heart uptake (LNCaP tumor-bearing mice [2]): 0.19 ± 0.04 %ID/g | Intestines uptake (LNCaP tumor-bearing mice [2]): 0.23 ± 0.05 %ID/g | Lacrimal glands uptake (LNCaP tumor-bearing mice [2]): 0.09 ± 0.03 %ID/g | Liver uptake (LNCaP tumor-bearing mice [2]): 0.21 ± 0.05 %ID/g | Lungs uptake (LNCaP tumor-bearing mice [2]): 0.52 ± 0.09 %ID/g | Muscle uptake (LNCaP tumor-bearing mice [2]): 0.09 ± 0.01 %ID/g | Pancreas uptake (LNCaP tumor-bearing mice [2]): 0.12 ± 0.02 %ID/g | Salivary glands uptake (LNCaP tumor-bearing mice [2]): 0.16±0.02 %ID/g and < 0.25 %ID/g | Spleen uptake (LNCaP tumor-bearing mice [2]): 0.17 ± 0.02 %ID/g | Stomach uptake (LNCaP tumor-bearing mice [2]): 0.08 ± 0.05 %ID/g | Testes uptake (LNCaP tumor-bearing mice [2]): 0.15 ± 0.03 %ID/g | Thyroid uptake (LNCaP tumor-bearing mice [2]): 0.18 ± 0.02 %ID/g | Tumor uptake (LNCaP tumor-bearing mice [2]): 21.1±3.62 %ID/g and 21-25 %ID/g | Tumor:Blood uptake ratio (LNCaP tumor-bearing mice [2]): 32.2±8.53 | Tumor:Kidney uptake ratio (LNCaP tumor-bearing mice [2]): 7.67±2.10 | Tumor:Muscle uptake ratio (LNCaP tumor-bearing mice [2]): 249±61.2 | Tumor:Salivary gland uptake ratio (LNCaP tumor-bearing mice [2]): 133±14.0 | Adrenal glands uptake (LNCaP tumor-bearing mice [2]; [3]): 0.13 ± 0.06 %ID/g | Blood uptake (LNCaP tumor-bearing mice [2]; [3]): 0.33 ± 0.16 %ID/g | Blood:Salivary gland uptake ratio (LNCaP tumor-bearing mice [2]; [3]): 3.64 ± 0.44 | Bone uptake (LNCaP tumor-bearing mice [2]; [3]): 0.06 ± 0.02 %ID/g | Brain uptake (LNCaP tumor-bearing mice [2]; [3]): 0.01 ± 0.00 %ID/g | Fat uptake (LNCaP tumor-bearing mice [2]; [3]): 0.06 ± 0.04 %ID/g | Heart uptake (LNCaP tumor-bearing mice [2]; [3]): 0.10 ± 0.05 %ID/g | Intestines uptake (LNCaP tumor-bearing mice [2]; [3]): 0.13 ± 0.03 %ID/g | Kidneys uptake (LNCaP tumor-bearing mice [2]; [3]): 1.15 ± 0.37 %ID/g | Lacrimal glands uptake (LNCaP tumor-bearing mice [2]; [3]): 0.06 ± 0.03 %ID/g | Liver uptake (LNCaP tumor-bearing mice [2]; [3]): 0.16 ± 0.05 %ID/g | Lungs uptake (LNCaP tumor-bearing mice [2]; [3]): 0.31 ± 0.10 %ID/g | Muscle uptake (LNCaP tumor-bearing mice [2]; [3]): 0.08 ± 0.06 %ID/g | Pancreas uptake (LNCaP tumor-bearing mice [2]; [3]): 0.07 ± 0.02 %ID/g | Salivary glands uptake (LNCaP tumor-bearing mice [2]; [3]): 0.09 ± 0.04 %ID/g | Spleen uptake (LNCaP tumor-bearing mice [2]; [3]): 0.12 ± 0.03 %ID/g | Stomach uptake (LNCaP tumor-bearing mice [2]; [3]): 0.03 ± 0.01 %ID/g | Testes uptake (LNCaP tumor-bearing mice [2]; [3]): 0.15 ± 0.01 %ID/g | Thyroid uptake (LNCaP tumor-bearing mice [2]; [3]): 0.12 ± 0.05 %ID/g | Tumor uptake (LNCaP tumor-bearing mice [2]; [3]): 0.35 ± 0.09 %ID/g | Tumor:Blood uptake ratio (LNCaP tumor-bearing mice [2]; [3]): 1.14 ± 0.25 | Tumor:Kidney uptake ratio (LNCaP tumor-bearing mice [2]; [3]): 0.31 ± 0.08 | Tumor:Muscle uptake ratio (LNCaP tumor-bearing mice [2]; [3]): 5.34 ± 2.25 | Tumor:Salivary gland uptake ratio (LNCaP tumor-bearing mice [2]; [3]): 4.13 ± 0.92 | Tumor uptake (LNCaP tumor-bearing mice [2]; listed as [^68Ga]HTK03187): ~ 20 %ID/g | Reduction of average kidney uptake by co-injection of DCFPyL (LNCaP tumor-bearing mice [2]; DCFPyL 0.5 mg): 59%

COc1ccc(CCCC(=O)NCC(=O)N[C@@H](CCCCNC(=O)CN2CCN(CC(=O)[O-])CCN(CC(=O)[O-])CCN(CC(=O)[O-])CC2)C(=O)NC[C@H]2CC[C@H](C(=O)N[C@@H](Cc3c4ccccc4cc4ccccc34)C(=O)NCCCC[C@H](NC(=O)N[C@@H](CSCC(=O)O)C(=O)O)C(=O)O)CC2)cc1.[Lu+3] [Lu-HTK04048]
Ki (PSMA): 1.4 ± 1 nM

O=C([O-])CN1CCN(CC(=O)[O-])CCN(CC(=O)NCC2CCC(C(=O)NC(Cc3c4ccccc4cc4ccccc34)C(=O)NCCCCC(NC(=O)NC(COCC(=O)O)C(=O)O)C(=O)O)CC2)CCN(CC(=O)[O-])CC1.[Ga+3] (centres unmarked) [Ga-HTK03187]
Ki (PSMA): 10.6 ± 2 nM

O=C([O-])CN1CCN(CC(=O)[O-])CCN(CC(=O)NCC2CCC(C(=O)NC(Cc3ccc4ccccc4c3)C(=O)NCCCCC(NC(=O)NC(CCC(=O)O)C(=O)O)C(=O)O)CC2)CCN(CC(=O)[O-])CC1.[68Ga+3] (centres unmarked) [[^68Ga]Ga-PSMA-617]
Tumor uptake (22Rv1 tumor model): 3.41±1.31 %ID/g
